Reference: patent US8304539B2, “Fused heteroaryl modulators of glucocorticoid receptor, AP-1, and/or NF-κB activity and use thereof” (Bristol-Myers Squibb Company, priority 2008, dated 2012)
Read-outs that look alike come from different tables or passages of the source.

Test system: AP-1
Test: Cellular transrepression assay (AP-1 luciferase reporter in A549 cells, PMA activated)
Format: cell-based
Conditions: 10 ng/ml PMA; for EC50: read-out: AP-1 (EC50, nM) (measured in cellular transrepression assay); for Emax: read-out: AP-1 Max % inhibition (measured in cellular transrepression assay)
Procedure: Cellular Transrepressional Assay
To measure the ability of test molecules to inhibit AP-1 induced transcriptional activity we utilized an A549 cell which was stably transfected with a plasmid containing 7×AP-1 DNA binding sites (pAP-1-Luc plasmid, Stratagene Co. La Jolla, Calif.) followed by the gene for luciferase. Cells were activated with 10 ng/ml of phorbol myristic acid (PMA) plus or minus test molecules for 7 hours. After 7 hours a luciferase reagent was added to measure luciferase enzymatic activity in the cell. After a 10 minute incubation of luciferase reagent with cells, luminescence was measured in a TopCount luminescence counter. Repression of AP-1 activity was calculated as the percentage decrease in the signal induced by PMA alone. Test molecules were analyzed in the concentration range from 0.1 nM to 40 μM. EC50s were determined by using standard curve fitting methods such as Excel fit (Microsoft Co.). An EC50 is the test molecule concentration at which there is a 50% repression of the maximal inhibition of transcription, i.e. a 50% reduction of AP-1 activity.

SMILES	EC50 (7 h) [nM]	EC50 (7 hours) [nM]	Emax (7 h) [%]	AP-1 Max % inhibition (measured in cellular transrepression assay) (7 hours) [%]
CCN(C)C(=O)c1ccc(-c2ccc3c(n2)Oc2nc(C)ccc2[C@@H]3C(C)(C)C(=O)Nc2nnc(C(=O)NC3CC3)s2)cc1 [Example 44]	589	–	60.8	–
CCN(C)C(=O)c1ccc(-c2ccc3c(n2)Oc2nc(C)ccc2[C@@H]3C(C)(C)C(=O)Nc2nnc(C(=O)NC)s2)cc1 [Example 46]	759	–	36	–
CCNC(=O)c1nnc(NC(=O)C(C)(C)[C@H]2c3ccc(C)nc3Oc3nc(-c4ccc(C(=O)N(C)CC)cc4)ccc32)s1 [Example 48]	341	–	59.4	–
CCN(C)C(=O)c1ccc(-c2ccc3c(n2)Oc2nc(C)ccc2[C@@H]3C(C)(C)C(=O)Nc2nnc(C(=O)N3CCOCC3)s2)cc1 [Example 50]	908	–	35.4	–
CN(C)C(=O)c1ccc(-c2ccc3c(n2)Oc2nc(Cl)ccc2C3C(C)(C)C(=O)Nc2nncs2)cc1 (centres unmarked) [Example 54, 4-(8-chloro-5-(1,1-dimethyl-2-oxo-2-(1,3,4-thiadiazol-2-ylamino)ethyl)-5H-pyrido[3′,2′:5,6]pyrano[2,3-b]pyridin-2-yl)-N,N-dimethylbenzamide]	33.8	–	59.2	–
CC(C)Sc1ccc2c(n1)Oc1nc(-c3ccc(C(=O)N(C)C)cc3)ccc1C2C(C)(C)C(=O)Nc1nncs1 (centres unmarked) [Example 55]	354	–	30.5	–
Cc1nnc(NC(=O)C(C)(C)C2c3ccc(Cl)nc3Oc3nc(-c4ccc(C(=O)N(C)C)cc4)ccc32)s1 (centres unmarked) [Example 56]	70.6	–	45.9	–
CCN(C)C(=O)c1ccc(-c2ccc3c(n2)Oc2nc(Cl)ccc2C3C(C)(C)C(=O)Nc2nnc(C)s2)cc1 (centres unmarked) [Example 58, 4-(8-chloro-5-(1,1-dimethyl-2-((5-methyl-1,3,4-thiadiazol-2-yl)amino)-2-oxoethyl)-5H-pyrido[3′,2′:5,6]pyrano[2,3-b]pyridin-2-yl)-N-ethyl-N-methylbenzamide]	58.1	–	57.7	–
CCN(C)C(=O)c1ccc(-c2ccc3c(n2)Oc2nc(Cl)ccc2C3C(C)(C)C(=O)Nc2nncs2)cc1 (centres unmarked) [Example 59]	15.8	–	62.3	–
Cc1nnc(NC(=O)C(C)(C)C2c3ccc(Cl)nc3Oc3nc(-c4ccc(C(=O)N5CCOCC5)cc4)ccc32)s1 (centres unmarked) [Example 61]	47.5	–	49.8	–
CN(C)C(=O)c1ccc(-c2ccc3c(n2)Oc2nc(C#N)ccc2C3C(C)(C)C(=O)Nc2nncs2)cc1 (centres unmarked) [Example 66, 4-(8-cyano-5-(1,1-dimethyl-2-oxo-2-(1,3,4-thiadiazol-2-ylamino)ethyl)-5H-pyrido[3′,2′:5,6]pyrano[2,3-b]pyridin-2-yl)-N,N-dimethylbenzamide]	335	–	38.9	–
CN(C)C(=O)c1ccc(-c2ccc3c(n2)Oc2nc(N(C)C)ccc2C3C(C)(C)C(=O)Nc2nncs2)cc1 (centres unmarked) [Example 67, 4-(8-(dimethylamino)-5-(1,1-dimethyl-2-oxo-2-(1,3,4-thiadiazol-2-ylamino)ethyl)-5H-pyrido[3′,2′:5,6]pyrano[2,3-b]pyridin-2-yl)-N,N-dimethylbenzamide]	53	–	57.9	–
Cc1nnc(NC(=O)C(C)(C)C2c3ccc(-c4ccc(C(=O)N(C)C)cc4)nc3Oc3nc(N(C)C)ccc32)s1 (centres unmarked) [Example 68, 4-(8-(dimethylamino)-5-(1,1-dimethyl-2-((5-methyl-1,3,4-thiadiazol-2-yl)amino)-2-oxoethyl)-5H-pyrido[3′,2′:5,6]pyrano[2,3-b]pyridin-2-yl)-N,N-dimethylbenzamide]	95.3	–	46.3	–
CN(C)c1ccc2c(n1)Oc1nc(-c3ccc(C(=O)N4CCOCC4)cc3)ccc1C2C(C)(C)C(=O)Nc1nncs1 (centres unmarked) [Example 72]	18	–	48.7	–
CCN(C)C(=O)c1ccc(-c2ccc3c(n2)Oc2nc(C)ccc2[C@@H]3C(C)(C)C(=O)Nc2nnc(C(=O)NC(C)C)s2)cc1 [Example 86]	183	–	61.6	–
CCN(C)C(=O)c1ccc(-c2ccc3c(n2)Oc2nc(C)ccc2[C@@H]3C(C)(C)C(=O)Nc2nnc(C(=O)NCC(F)(F)F)s2)cc1 [Example 87]	574	–	51.7	–
Cc1ccc2c(n1)Oc1nc(-c3ccc(C(C)(C)O)cc3)ccc1[C@H]2C(C)(C)C(=O)Nc1nncs1 [Example 89]	21	–	46.9	–
Cc1ccc2c(n1)Oc1nc(-c3ccc(C(=O)N(C)C)cc3)ccc1[C@H]2C(C)(C)C(=O)Nc1nnn(C)n1 [Example 94]	790	–	35.9	–

Now from value to compound, other results behind:

EC50 (7 h) [nM]	EC50 (7 hours) [nM]	SMILES	Emax (7 h) [%]	AP-1 Max % inhibition (measured in cellular transrepression assay) (7 hours) [%]
98	–	CCN(C)C(=O)c1ccc(-c2ccc3c(n2)Oc2nc(C)ccc2[C@@H]3C(C)(C)C(=O)Nc2nnc(C(=O)NC3CCC3)s2)cc1 [Example 49]	66.3	–
68.5	–	Cc1nsc(NC(=O)C(C)(C)C2c3ccc(Cl)nc3Oc3nc(-c4ccc(C(=O)N(C)C)cc4)ccc32)n1 (centres unmarked) [Example 57]	31.4	–
10.7	–	CC(C)(C(=O)Nc1nncs1)C1c2ccc(Cl)nc2Oc2nc(-c3ccc(C(=O)N4CCOCC4)cc3)ccc21 (centres unmarked) [Example 60]	57.5	–
352	–	CN(C)C(=O)c1ccc(-c2ccc3c(n2)Oc2nc(Cl)ccc2C3C(C)(C)C(=O)Nc2nnc(C(=O)NC3CC3)s2)cc1 (centres unmarked) [Example 62]	59.5	–
–	87	Cc1nnc(NC(=O)C(C)(C)C2c3ccc(Cl)nc3Oc3nc(-c4ccc(C(=O)N5CCOCC5)cc4)ccc32)s1 (centres unmarked) [Example 63]	–	54.57
67.2	–	CCN(C)C(=O)c1ccc(-c2ccc3c(n2)Oc2nc(N(C)C)ccc2C3C(C)(C)C(=O)Nc2nnc(C)s2)cc1 (centres unmarked) [Example 71]	48.6	–
194	–	CN(C)C(=O)c1ccc(-c2ccc3c(n2)Oc2nc(N(C)C)ccc2C3C(C)(C)C(=O)Nc2nncs2)cc1F (centres unmarked) [Example 73, 4-(8-(dimethylamino)-5-(1,1-dimethyl-2-oxo-2-(1,3,4-thiadiazol-2-ylamino)ethyl)-5H-pyrido[3′,2′:5,6]pyrano[2,3-b]pyridin-2-yl)-2-fluoro-N,N-dimethylbenzamide]	43.4	–
119	–	CCC(=O)c1ccc(-c2ccc3c(n2)Oc2nc(C)ccc2[C@@H]3C(C)(C)C(=O)Nc2nncs2)cc1 [Example 76]	48.5	–
56.9	–	Cc1ccc2c(n1)Oc1nc(-c3ccc(C(=O)N4CCOCC4)cc3)ccc1[C@H]2C(C)(C)C(=O)Nc1nnc(C(=O)NC2CCOCC2)s1 [Example 88, 5-((2-methyl-2-((5S)-2-methyl-8-(4-(4-morpholinylcarbonyl)phenyl)-5H-pyrano[2,3-b:6,5-b′]dipyridin-5-yl)propanoyl)amino)-N-(tetrahydro-2H-pyran-4-yl)-1,3,4-thiadiazole-2-carboxamide]	32.9	–
167	–	Cc1ccc2c(n1)Oc1nc(-c3ccc(C(=O)N4CCOCC4)cc3)ccc1[C@H]2C(C)(C)C(=O)Nc1nnc(C2CC2)s1 [Example 93, N-(5-cyclopropyl-1,3,4-thiadiazol-2-yl)-2-methyl-2-((5 S)-2-methyl-8-(4-(4-morpholinylcarbonyl)phenyl)-5H-pyrido[3′,2′:5,6]pyrano[2,3-b]pyridin-5-yl)propanamide]	44.3	–
